# Source: ChEMBL document CHEMBL1201862, “PubChem BioAssay data set” (2004)
#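 96-well plates; 48 h exposure; 5 concentrations. Endpoints by linear interpolation between flanking doses. Not reached: highest tested concentration assigned. The concentration for 50% growth inhibition is given as GI50.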 Calls of active or inactive are those of the source. Cut-off read from the data, not from the text of the source: active = GI50 up to about 1.1 µM and inactive = higher.
# What was measured:
# Experiment in all cases: DTP human tumour cell line panel, 48 h
# [1] = test system: 786-0
# [2] = test system: A498
# [3] = test system: A549
# [4] = test system: ACHN
# [5] = test system: CAKI-1
# [6] = test system: CCRF-CEM
# [7] = test system: COLO 205
# [8] = test system: DLD-1
# [9] = test system: DMS-114
# [10] = test system: DMS-273
# [11] = test system: EKVX
# [12] = test system: HCC 2998
# [13] = test system: HCT-116
# [14] = test system: HCT-15
# [15] = test system: HL-60
# [16] = test system: HOP-18
# [17] = test system: HOP-62
# [18] = test system: HOP-92
# [19] = test system: HT-29
# [20] = test system: IGROV-1
# [21] = test system: K562
# [22] = test system: KM-20L2
# [23] = test system: KM12
# [24] = test system: LOX IMVI
# [25] = test system: LXFL 529
# [26] = test system: M14
# [27] = test system: M19-MEL
# [28] = test system: MOLT-4
# [29] = test system: Malme-3M
# [30] = test system: NCI-H226
# [31] = test system: NCI-H23
# [32] = test system: NCI-H460
# [33] = test system: NCI-H522
# [34] = test system: OVCAR-3
# [35] = test system: OVCAR-4
# [36] = test system: OVCAR-5
# [37] = test system: OVCAR-8
# [38] = test system: RPMI-8226
# [39] = test system: RXF 393
# [40] = test system: RXF 631
# [41] = test system: SF-268
# [42] = test system: SF-295
# [43] = test system: SF-539
# [44] = test system: SK-MEL-28
# [45] = test system: SK-MEL-2
# [46] = test system: SK-MEL-5
# [47] = test system: SK-OV-3
# [48] = test system: SN12C
# [49] = test system: SNB-19
# [50] = test system: SNB-75
# [51] = test system: SNB-78
# [52] = test system: SR
# [53] = test system: SW-620
# [54] = test system: TK-10
# [55] = test system: U-251
# [56] = test system: UACC-257
# [57] = test system: UACC-62
# [58] = test system: UO-31
# [59] = test system: XF498
smiles,measurement,setting,value
CCOC(=O)Cn1c(=O)[nH]c(=O)c2c1ncn2Cc1ccccc1,GI50,[1],> 100 µM (inactive)
same,GI50,[2],> 100 µM (inactive)
same,GI50,[3],> 100 µM (inactive)
same,GI50,[4],> 100 µM (inactive)
same,GI50,[5],> 100 µM (inactive)
same,GI50,[6],> 100 µM (inactive)
same,GI50,[7],> 100 µM (inactive)
same,GI50,[8],> 100 µM (inactive)
same,GI50,[9],> 100 µM (inactive)
same,GI50,[10],> 100 µM (inactive)
same,GI50,[11],> 100 µM (inactive)
same,GI50,[12],> 100 µM (inactive)
same,GI50,[13],> 100 µM (inactive)
same,GI50,[14],> 100 µM
same,GI50,[15],> 100 µM (inactive)
same,GI50,[16],> 100 µM (inactive)
same,GI50,[17],> 100 µM (inactive)
same,GI50,[18],> 100 µM (inactive)
same,GI50,[19],> 100 µM (inactive)
same,GI50,[20],> 100 µM (inactive)
same,GI50,[21],> 100 µM (inactive)
same,GI50,[22],> 100 µM (inactive)
same,GI50,[23],> 100 µM (inactive)
same,GI50,[24],> 100 µM (inactive)
same,GI50,[25],> 100 µM (inactive)
same,GI50,[26],> 100 µM (inactive)
same,GI50,[27],> 100 µM (inactive)
same,GI50,[28],> 100 µM (inactive)
same,GI50,[29],> 100 µM (inactive)
same,GI50,[30],> 100 µM (inactive)
same,GI50,[31],> 100 µM (inactive)
same,GI50,[32],> 100 µM (inactive)
same,GI50,[33],> 100 µM (inactive)
same,GI50,[34],> 100 µM (inactive)
same,GI50,[35],> 100 µM (inactive)
same,GI50,[36],> 100 µM (inactive)
same,GI50,[37],> 100 µM (inactive)
same,GI50,[38],> 100 µM (inactive)
same,GI50,[39],> 100 µM (inactive)
same,GI50,[40],> 100 µM (inactive)
same,GI50,[41],> 100 µM (inactive)
same,GI50,[42],> 100 µM (inactive)
same,GI50,[43],> 100 µM (inactive)
same,GI50,[44],> 100 µM (inactive)
same,GI50,[45],> 100 µM (inactive)
same,GI50,[46],> 100 µM (inactive)
same,GI50,[47],> 100 µM (inactive)
same,GI50,[48],> 100 µM (inactive)
same,GI50,[49],> 100 µM (inactive)
same,GI50,[50],> 100 µM (inactive)
same,GI50,[51],> 100 µM (inactive)
same,GI50,[52],> 100 µM (inactive)
same,GI50,[53],> 100 µM (inactive)
same,GI50,[54],> 100 µM (inactive)
same,GI50,[55],> 100 µM (inactive)
same,GI50,[56],> 100 µM (inactive)
same,GI50,[57],> 100 µM (inactive)
same,GI50,[58],> 100 µM (inactive)
same,GI50,[59],> 100 µM (inactive)
